Experimental data taken from US8936807B2, “Use of the cathelicidin LL-37 and derivatives thereof for wound healing” (Lipopeptide AB, priority 2003, dated 2015).

What was measured:
Human Normal Fibroblast = assay: Proliferation and viability of human normal fibroblasts (WST-1); type: cell-based; settings: 10% serum, 48 Hours; for Increased Proliferation (%): vs control
Source text: The peptide LL-37 used in this and following tests was as described in Example 1 (lot 971/26). The fibroblasts, a type of stromal cells, were obtained from injured and uninjured skin in patients with chronic leg ulcers due to venous insufficiency. Punch-biopsies (4-mm) were taken from the wound margin including 50% of the epithelialized area and from uninjured skin in the knee region. Individuals with a history of diabetes mellitus, arterial insufficiency or chronic inflammatory disease were excluded. Patients with signs of eczema in the ulcer margin, clinical signs of infection or undergoing systemic or topical antibiotic treatment at the time for biopsy were also excluded. Patients included were all treated with inert local dressings and standard compression bandaging.
Fibroblast were put in culture using explant technique (Hehenberger et al., Cell Biochem Funct 15:197-201, 1997). Fibroblasts were plated in 96 well plates (Falcon, USA) at the concentration of 2000 cells per well. Cells were plated at −48 hours and stimulated with different concentrations of synthetic LL-37 peptide by hour 0. The testing was done in one experiment with 6 wells in each condition. Proliferation and viability were ascertained by measuring mitochondrial activity (WST-1, Roche) after 24 h and 48 h. Increase in cell proliferation (Proliferation Index) is calculated in comparison with baseline (Control=0 μg/ml). Mean values from six samples per condition in one experiment are presented.

HaCat cells = assay: Proliferation and viability of HaCat cells measured by mitochondrial activity (WST-1); type: cell-based, human; settings: LL-37 100 μg/ml, 10% serum, 48 h
Description: HaCat cells were used for these experiments. HaCat cells are an immortalized human keratinocyte cell line (Boukamp et al., J Cell Biol 106:761-771, 1988), which is suitable for experimental keratinocyte research. HaCat cells were cultured in medium (DMEM, +10% FCS and PEST). Both types of cell cultures were treated with synthetic, bioactive LL-37 (lot YS 5253). In addition a mixture of LL-37 (114 μg/ml) and CPL-Galactolipid (0.2%) in medium containing serum at either 2 or 10% was added to evaluate the capacity to increase proliferation and inhibit cytotoxicity. Cells were harvested at different time-points (24 h, 48 h, 72 h and 96 h) and counted by flowcytometry (Becton-Dickinson) and stained by Trypan-Blue to evaluate viability. […] Proliferation and viability were also ascertained by measuring mitochondrial activity (WST-1, Roche, Cook et al. Anal Biochem 179:1-7, 1989).

For “LLGDFFRKSKEKIGKEFKRIVQRIKDFLRNLVPRTES [LL-37]”, the Absorbance (Human Normal Fibroblast; LL-37 25 μg/ml) was 0.597, the “Increased Proliferation (%)” value (Human Normal Fibroblast; LL-37 25 μg/ml) was 7% and the Absorbance (Human Normal Fibroblast; LL-37 50 μg/ml) was 0.626. For the same sequence, the “Increased Proliferation (%)” value (Human Normal Fibroblast; LL-37 50 μg/ml) was 12%, the Absorbance (Human Normal Fibroblast; LL-37 100 μg/ml) was 0.669 and the “Increased Proliferation (%)” value (Human Normal Fibroblast; LL-37 100 μg/ml) was 19%. For the same sequence, the Absorbance (HaCat cells) was 1.110, the “Trypan Blue + (%)” value (HaCat cells) was under 1% and the “Increased Proliferation (%)” value (HaCat cells; vs baseline) was 78%.
